Patent US11001590B2, “Pyrazolopyrimidine derivatives” (BAYER ANIMAL HEALTH GMBH, priority 2016, dated 2021)

What was measured:
[1] = tested on: Dirofilaria immitis microfilariae; assay: In vitro assay 3: Dirofilaria immitis microfilariae (DIROIM L1), motility; conditions: 72 h, reduction of motility vs negative control, 72 h incubation
C. elegans Slo-1a = C. elegans Slo-1a (Caenorhabditis elegans, UniProt Q95V25); assay: In vitro assay 1: C. elegans Slo-1a, action at a recombinant C. elegans CHO cell line (membrane potential measurement)
Chain of C. elegans Slo-1a (Q95V25 whole entry): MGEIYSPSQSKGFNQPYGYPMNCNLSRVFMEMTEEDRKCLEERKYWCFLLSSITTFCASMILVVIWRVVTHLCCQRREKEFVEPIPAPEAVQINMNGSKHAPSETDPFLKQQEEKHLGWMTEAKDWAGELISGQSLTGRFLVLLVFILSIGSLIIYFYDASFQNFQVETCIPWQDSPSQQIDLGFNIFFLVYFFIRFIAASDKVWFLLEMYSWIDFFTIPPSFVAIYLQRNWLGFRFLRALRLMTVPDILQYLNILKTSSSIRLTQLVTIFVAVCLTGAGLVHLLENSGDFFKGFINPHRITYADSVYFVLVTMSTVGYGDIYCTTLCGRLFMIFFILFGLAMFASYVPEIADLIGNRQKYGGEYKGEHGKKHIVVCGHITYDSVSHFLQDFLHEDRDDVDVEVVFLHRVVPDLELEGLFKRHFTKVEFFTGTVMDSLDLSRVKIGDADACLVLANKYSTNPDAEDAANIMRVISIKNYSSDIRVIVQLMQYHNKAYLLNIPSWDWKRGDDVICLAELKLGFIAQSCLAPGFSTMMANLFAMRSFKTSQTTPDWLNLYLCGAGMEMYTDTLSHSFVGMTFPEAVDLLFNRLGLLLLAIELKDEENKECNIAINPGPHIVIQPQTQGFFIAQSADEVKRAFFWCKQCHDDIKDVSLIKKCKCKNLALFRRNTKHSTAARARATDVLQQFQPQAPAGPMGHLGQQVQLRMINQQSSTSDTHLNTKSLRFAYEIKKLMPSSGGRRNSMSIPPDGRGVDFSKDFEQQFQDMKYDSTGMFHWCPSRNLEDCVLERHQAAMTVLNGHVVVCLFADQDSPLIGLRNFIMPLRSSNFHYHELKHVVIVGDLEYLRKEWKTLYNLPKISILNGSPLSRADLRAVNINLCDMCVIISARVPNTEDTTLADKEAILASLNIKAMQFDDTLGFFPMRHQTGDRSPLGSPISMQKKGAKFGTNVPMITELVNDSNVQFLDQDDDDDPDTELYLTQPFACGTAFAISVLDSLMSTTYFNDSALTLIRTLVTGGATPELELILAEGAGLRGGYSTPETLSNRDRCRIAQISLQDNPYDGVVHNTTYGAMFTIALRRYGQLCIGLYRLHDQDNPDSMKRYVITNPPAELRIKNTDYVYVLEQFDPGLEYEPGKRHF

[2] = log P by HPLC on reversed phase columns (Method L0; [a] acidic, [b] neutral range)
Method: Calibration was done with straight-chain alkan-2-ones (with 3 to 16 carbon atoms) with known log P values (measurement of log P values using retention times with linear interpolation between successive alkanones). Lambda-max-values were determined using UV-spectra from 200 nm to 400 nm and the peak values of the chromatographic signals.

| SMILES | EC50 [1] | EC50 (C. elegans Slo-1a) | chromatographic logP [2] |
| --- | --- | --- | --- |
| Cc1nn2c(C(C)C)c(C(=O)N[C@H]3CCOc4ccccc43)cnc2c1-c1cnccc1Cl [Example 231] | < 1 µg/mL | 15.8 nM | 3.9 |
| Cc1nn2c(C(C)C)c(C(=O)N[C@H]3CCOc4ccccc43)cnc2c1-c1ccc2c(c1)N(C)CC2 [Example 238] | < 10 µg/mL | 158 nM | 4.13 |
| Cc1nn2c(C(C)C)c(C(=O)N[C@H]3CCOc4ccccc43)cnc2c1-c1ccc2c(c1)OCO2 [Example 239] | < 10 µg/mL | 31.6 nM | 4.08 |
| Cc1nn2c(C(C)C)c(C(=O)N[C@H]3CCOc4ccccc43)cnc2c1-c1ccc2cc[nH]c2c1 [Example 243] | < 10 µg/mL | 631 nM | 3.76 |
| Cc1nn2c(C(C)C)c(C(=O)N[C@H]3CCOc4ccccc43)cnc2c1-c1ccc2c(c1F)OCO2 [Example 245] | < 1 µg/mL | 20 nM | 4.18 |
| COc1cccc(-c2c(C)nn3c(C(C)C)c(C(=O)N[C@H]4CCOc5ccccc54)cnc23)c1Cl [Example 247] | < 1 µg/mL | 10 nM | 4.19 |
| Cc1nn2c(C(C)C)c(C(=O)N[C@H]3CCOc4ccccc43)cnc2c1-c1ccc2c(c1)NCC2 [Example 248] | < 10 µg/mL | 50.1 nM | 2.2 |
| COc1cc(-c2c(C)nn3c(C(C)C)c(C(=O)N[C@H]4CCOc5ccccc54)cnc23)cc(OC)c1OC [Example 249] | < 1 µg/mL | 158 nM | 3.94 |
| Cc1nn2c(C(C)C)c(C(=O)N[C@H]3CCOc4ccccc43)cnc2c1-c1ccc2c(c1)OC(F)(F)O2 [Example 251] | < 0.1 µg/mL | 3.16 nM | 5.03 |
| Cc1nn2c(C(C)C)c(C(=O)N[C@H]3CCOc4ccccc43)cnc2c1-c1ccc2c(c1)CC(=O)N2 [Example 252] | < 10 µg/mL | 1260 nM | 2.87 |
| Cc1nn2c(C(C)C)c(C(=O)N[C@H]3CCOc4ccccc43)cnc2c1-c1cc(O)c(F)c(F)c1 [Example 259] | < 1 µg/mL | 15.8 nM | 3.61 |
| Cc1nn2c(C(C)C)c(C(=O)N[C@H]3CCOc4ccccc43)cnc2c1-c1ccccc1C#N [Example 264] | < 1 µg/mL | 25.1 nM | 3.68 |
| Cc1nn2c(C(C)C)c(C(=O)N[C@H]3CCOc4ccccc43)cnc2c1-c1cccc2c1OCO2 [Example 266] | < 1 µg/mL | 2 nM | 4.02 |
| Cc1nc2c(-c3cccc(Cl)c3Cl)c(C)nn2c(C)c1C(=O)N[C@H]1CCOc2ccccc21 [Example 267] | < 10 µg/mL | 158 nM | 3.86 |
| Cc1nn2c(C(C)C)c(C(=O)N[C@H]3CCc4ccccc43)cnc2c1-c1cccc(S(C)(=O)=O)c1 [Example 288] | < 10 µg/mL | 200 nM | 3.57 |
| Cc1nn2c(C(C)C)c(C(=O)N[C@H]3CCc4ccccc43)cnc2c1-c1cccnc1 [Example 297] | < 10 µg/mL | 1260 nM | 2.19 |
| CC(=O)Nc1cccc(-c2c(C)nn3c(C(C)C)c(C(=O)N[C@H]4CCc5ccccc54)cnc23)c1 [Example 298] | < 10 µg/mL | 1260 nM | 3.3 |
| Cc1nn2c(C3CC3)c(C(=O)N[C@H]3CCc4ccccc43)cnc2c1-c1cccc(C(F)(F)F)c1 [Example 304] | < 1 µg/mL | 20 nM | 4.55 |
| Cc1nn2c(C(C)C)c(C(=O)N[C@H]3CCc4ccccc43)cnc2c1-c1cccc(NS(C)(=O)=O)c1 [Example 308] | < 10 µg/mL | 1580 nM | 3.44 |
| Cc1nn2c(C(C)C)c(C(=O)N[C@H]3CCc4ccccc43)cnc2c1-c1cccc(OC(F)(F)F)c1 [Example 309] | < 10 µg/mL | 31.6 nM | 5.48 |
| COc1cc(-c2c(C)nn3c(C(C)C)c(C(=O)N[C@H]4CCc5ccccc54)cnc23)cc(C(F)(F)F)c1 [Example 312] | < 10 µg/mL | 25.1 nM | 5.41 |
| Cc1nn2c(C(C)C)c(C(=O)N[C@H]3CCc4ccccc43)cnc2c1-c1ccnc(Cl)c1 [Example 313] | < 10 µg/mL | 158 nM | 4.23 |
| Cc1nn2c(C(C)C)c(C(=O)N[C@H]3CCc4ccccc43)cnc2c1-c1cncc(Cl)c1 [Example 314] | < 0.1 µg/mL | 15.8 nM | 4.19 |
| Cc1nn2c(C(C)C)c(C(=O)N[C@H]3CCc4ccccc43)cnc2c1-c1cccc(NC(=O)C(F)(F)F)c1 [Example 315] | < 1 µg/mL | 251 nM | 4.28 |
| Cc1nn2c(C(C)C)c(C(=O)N[C@H]3CCc4ccccc43)cnc2c1-c1cccc(OCC2CC2)c1 [Example 319] | < 1 µg/mL | 25.1 nM | 5.28 |

| SMILES | EC50 [1] | EC50 (C. elegans Slo-1a) | chromatographic logP [2] |
| --- | --- | --- | --- |
| Cc1nn2c(C(C)C)c(C(=O)N[C@H]3CCc4ccccc43)cnc2c1-c1cccc(OCC#N)c1 [Example 320] | < 10 µg/mL | 50.1 nM | 4.09 |
| Cc1nn2c(C(C)C)c(C(=O)N[C@H]3CCc4ccccc43)cnc2c1-c1cccc(OC(C)C)c1 [Example 321] | < 1 µg/mL | 10 nM | 5.28 |
| Cc1nn2c(C(C)C)c(C(=O)N[C@H]3CCc4ccccc43)cnc2c1-c1cccc(N2CCCC2)c1 [Example 329] | < 10 µg/mL | 25.1 nM | 5.44 |
| Cc1nn2c(C(C)C)c(C(=O)N[C@H]3CCc4ccccc43)cnc2c1-c1ccc(OC(F)(F)F)cc1 [Example 331] | < 10 µg/mL | 251 nM | 5.41 |
| Cc1nn2c(C(C)C)c(C(=O)N[C@H]3CCc4ccccc43)cnc2c1-c1ccc(C(F)(F)F)cc1 [Example 332] | < 1 µg/mL | 15.8 nM | 5.32 |
| Cc1nn2c(C(C)C)c(C(=O)N[C@H]3CCc4ccccc43)cnc2c1-c1ccc(C(F)F)cc1 [Example 334] | < 10 µg/mL | 25.1 nM | 4.63 |
| COCc1ccc(-c2c(C)nn3c(C(C)C)c(C(=O)N[C@H]4CCc5ccccc54)cnc23)cc1 [Example 340] | < 1 µg/mL | 39.8 nM | 4.41 |
| CNc1ccc(-c2c(C)nn3c(C(C)C)c(C(=O)N[C@H]4CCc5ccccc54)cnc23)cc1 [Example 341] | < 10 µg/mL | 200 nM | 3.32 |
| Cc1nn2c(C(C)C)c(C(=O)N[C@H]3CCc4ccccc43)cnc2c1-c1ccc(N(C)C)cc1 [Example 342] | < 10 µg/mL | 200 nM | 3.91 |
| Cc1nn2c(C(C)C)c(C(=O)N[C@H]3CCCc4ccccc43)cnc2c1-c1ccc(F)cc1 [Example 343] | < 10 µg/mL | 20 nM | 4.95 |
| Cc1nn2c(C(C)C)c(C(=O)N[C@H]3CCCc4ccccc43)cnc2c1-c1cccc(OC(F)(F)F)c1 [Example 345] | < 1 µg/mL | 12.6 nM | 5.82 |
| COc1cccc(-c2c(C)nn3c(C(C)C)c(C(=O)N[C@H]4CCCc5ccccc54)cnc23)c1 [Example 346] | < 0.1 µg/mL | 12.6 nM | 4.82 |
| Cc1nn2c(C(C)C)c(C(=O)N[C@H]3CCCc4ccccc43)cnc2c1-c1cccc(F)c1 [Example 347] | < 1 µg/mL | 39.8 nM | 5.04 |
| Cc1nn2c(C(C)C)c(C(=O)N[C@H]3CCc4ccccc43)cnc2c1-c1cccc(CN2CCOCC2)c1 [Example 354] | < 10 µg/mL | 398 nM | 2.01 |
| CCN(CC)Cc1cccc(-c2c(C)nn3c(C(C)C)c(C(=O)N[C@H]4CCc5ccccc54)cnc23)c1 [Example 355] | < 10 µg/mL | 2510 nM | 2.12 |
| Cc1nn2c(C(C)C)c(C(=O)N[C@H]3CCc4ccccc43)cnc2c1-c1cccc(N2CCCCC2)c1 [Example 356] | < 10 µg/mL | 158 nM | 3.25 |
| Cc1nn2c(C3CC3)c(C(=O)N[C@H]3CCc4ccccc43)cnc2c1-c1cccc(OC(F)(F)F)c1 [Example 360] | < 1 µg/mL | 12.6 nM | 4.72 |
| Cc1nn2c(C(C)C)c(C(=O)N[C@H]3CCCc4ccccc43)cnc2c1-c1cccc(N(C)C)c1 [Example 361] | < 1 µg/mL | 15.8 nM | 4.32 |
| Cc1nn2c(C(C)C)c(C(=O)N[C@H]3CCCc4ccccc43)cnc2c1-c1cncc(Cl)c1 [Example 362] | < 10 µg/mL | 100 nM | 4.52 |
| COc1cc(-c2c(C)nn3c(C(C)C)c(C(=O)N[C@H]4CCCc5ccccc54)cnc23)cc(C(F)(F)F)c1 [Example 363] | < 10 µg/mL | 63.1 nM | 5.7 |
| Cc1nn2c(C(C)C)c(C(=O)N[C@H]3CCc4ccccc43)cnc2c1-c1cccc(CN2CCCC2)c1 [Example 365] | < 10 µg/mL | 3160 nM | 2.08 |
| Cc1nn2c(C(C)C)c(C(=O)N[C@H]3CCc4ccccc43)cnc2c1-c1cccc(CN(C)C)c1 [Example 366] | < 10 µg/mL | 1580 nM | 1.95 |
| Cc1nn2c(C(C)C)c(C(=O)N[C@H]3CCc4ccccc43)cnc2c1-c1cccc(COCC(F)(F)F)c1 [Example 367] | < 10 µg/mL | 158 nM | 4.99 |
| Cc1nn2c(C(C)C)c(C(=O)N[C@H]3CCc4ccccc43)cnc2c1-c1cccc(COC(C)C)c1 [Example 369] | < 10 µg/mL | 20 nM | 5.25 |
| CCOCc1cccc(-c2c(C)nn3c(C(C)C)c(C(=O)N[C@H]4CCc5ccccc54)cnc23)c1 [Example 370] | < 1 µg/mL | 15.8 nM | 4.86 |
